Measured values taken from patent US8916553B2 (Bristol-Myers Squibb Company, priority 2010, dated 2014).

target: Human CYP17 (Homo sapiens (Human), UniProt P05093); test: CYP17 Total SPA Assay; format: biochemical; conditions: microsomes from HEK2 cells stably transfected with CYP17; 3H-Pregnenolone 1 uM; NADPH 2 mM; 45 minutes at room temperature
Protocol: CYP17 Total SPA Assay The assays were performed in U-bottom 384-well optiplates. […] The reaction was initiated by the combination of the microsomes and substrates in wells containing compound. The reaction was incubated at room temperature for 45 minutes and terminated by adding 7.5 μl of 0.2N HCl to each well. […] The plate was sealed and incubated overnight with shaking at 4° C. The beads were allowed to settle in the plate for 1 hour and the plate read on a TOPCOUNT® (Perkin-Elmer) plate reader. […] The final concentration of reagents in the assays are NADPH, 2 mM; 3H-Pregnenolone, 1 uM; microsomes, 1.25 ug/ml; […] Dose response curves were generated to determine the concentration required inhibiting 50% of enzyme activity (IC50). Compounds were dissolved at 10 mM in dimethylsulfoxide (DMSO) and evaluated at eleven concentrations, each in duplicate. IC50 values were derived by non-linear regression analysis. Table 22 below lists the IC50 values for the following Examples of this invention measured in the Total CYP17 SPA Assay hereinabove.

Chain of Human CYP17 (P05093 whole entry): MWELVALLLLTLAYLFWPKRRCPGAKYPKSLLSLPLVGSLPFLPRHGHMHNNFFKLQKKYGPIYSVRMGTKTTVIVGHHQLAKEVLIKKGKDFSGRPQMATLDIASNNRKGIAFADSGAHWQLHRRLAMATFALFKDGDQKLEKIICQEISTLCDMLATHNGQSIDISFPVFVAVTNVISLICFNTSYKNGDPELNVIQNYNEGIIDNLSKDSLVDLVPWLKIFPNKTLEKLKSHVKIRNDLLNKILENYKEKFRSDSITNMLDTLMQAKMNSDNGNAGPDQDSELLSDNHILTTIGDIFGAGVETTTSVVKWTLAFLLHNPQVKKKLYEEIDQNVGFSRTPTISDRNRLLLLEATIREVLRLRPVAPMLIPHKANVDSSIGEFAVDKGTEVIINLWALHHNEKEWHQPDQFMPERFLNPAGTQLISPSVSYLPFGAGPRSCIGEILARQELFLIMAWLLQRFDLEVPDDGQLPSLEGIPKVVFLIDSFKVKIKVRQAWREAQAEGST

SMILES	IC50
COc1cc(NS(=O)(=O)c2cccc3cccnc23)ccc1-c1cncc2ccccc12 [Example 154, N-(4-(isoquinolin-4-yl)-3-methoxyphenyl)quinoline-8-sulfonamide]	0.027 µM
COc1cc(NS(=O)(=O)c2cccnc2)ccc1-c1cncnc1C [Example 166, N-(3-methoxy-4-(4-methylpyrimidin-5-yl)phenyl)pyridine-3-sulfonamide]	0.131 µM
CCCS(=O)(=O)Nc1ccc(-c2cncnc2C)c(OC)c1 [Example 163, N-(3-methoxy-4-(4-methylpyrimidin-5-yl)phenyl)propane-1-sulfonamide]	0.134 µM
Cc1cc(NS(C)(=O)=O)ccc1-c1cnccc1-c1ccccc1 [Example 12, N-(3-methyl-4-(4-phenyl-3-pyridinyl)phenyl)methanesulfonamide]	0.104 µM
COc1cc(NS(C)(=O)=O)ccc1-c1cncc2ccccc12 [Example 142, N-(4-(isoquinolin-4-yl)-3-methoxyphenyl)methanesulfonamide]	0.0066 µM
COc1cc(NS(=O)(=O)c2ccccn2)ccc1-c1cncc2ccccc12 [Example 160, N-(4-(isoquinolin-4-yl)-3-methoxyphenyl)pyridine-2-sulfonamide]	0.006 µM
Cc1ccncc1-c1ccc(NS(C)(=O)=O)cc1OCC(F)(F)F [Example 24, N-(4-(4-methyl-3-pyridinyl)-3-(2,2,2-trifluoroethoxy)phenyl)methane sulfonamide]	0.042 µM
COc1cc(NS(=O)(=O)c2ccccc2)ccc1-c1cncnc1C [Example 165, N-(3-methoxy-4-(4-methylpyrimidin-5-yl)phenyl)benzenesulfonamide]	0.0054 µM
COc1cc(NS(=O)(=O)CC(F)(F)F)ccc1-c1cncnc1C [Example 167, 2,2,2-trifluoro-N-(3-methoxy-4-(4-methylpyrimidin-5-yl)phenyl)ethanesulfonamide]	0.158 µM
COc1ccc(S(=O)(=O)Nc2ccc(-c3cncc4ccccc34)c(OC)c2)cc1 [Example 147, N-(4-(isoquinolin-4-yl)-3-methoxyphenyl)-4-methoxybenzenesulfonamide]	0.0027 µM
COc1cc(NS(=O)(=O)CCc2ccccc2)ccc1-c1cncnc1C [Example 169, N-(3-methoxy-4-(4-methylpyrimidin-5-yl)phenyl)-2-phenylethanesulfonamide]	0.119 µM
COc1cc(NS(=O)(=O)c2ccccc2)ccc1-c1cncc2ccccc12 [Example 143, N-(4-(isoquinolin-4-yl)-3-methoxyphenyl)benzenesulfonamide]	0.0029 µM
COc1cc(NS(=O)(=O)C2CC2)ccc1-c1cncnc1C [Example 162, N-(3-methoxy-4-(4-methylpyrimidin-5-yl)phenyl)cyclopropanesulfonamide]	0.169 µM
CCS(=O)(=O)Nc1ccc(-c2cncc3ccccc23)c(OC)c1 [Example 156, N-(4-(isoquinolin-4-yl)-3-methoxyphenyl)ethanesulfonamide]	0.0081 µM
Cc1ccncc1-c1ccc(NS(C)(=O)=O)cc1OCC(F)F [Example 23, N-(3-(2,2-difluoroethoxy)-4-(4-methyl-3-pyridinyl)phenyl)methane sulfonamide]	0.032 µM
COc1cc(NS(=O)(=O)C2CC2)ccc1-c1cncc2ccccc12 [Example 159, N-(4-(isoquinolin-4-yl)-3-methoxyphenyl)cyclopropanesulfonamide]	0.0062 µM
COc1cc(NS(=O)(=O)c2cccc3ccccc23)ccc1-c1cncc2ccccc12 [Example 144, N-(4-(isoquinolin-4-yl)-3-methoxyphenyl)naphthalene-1-sulfonamide]	0.011 µM
COc1cc(NS(=O)(=O)Cc2ccccc2)ccc1-c1cncnc1C [Example 168, N-(3-methoxy-4-(4-methylpyrimidin-5-yl)phenyl)-1-phenylmethanesulfonamide]	0.0096 µM
COc1cc(NS(C)(=O)=O)ccc1-c1cncnc1C [Example 161, N-(3-methoxy-4-(4-methylpyrimidin-5-yl)phenyl)methanesulfonamide]	0.112 µM

Other lines, results leading:

IC50	SMILES
0.057 µM	COc1cc(NS(C)(=O)=O)ccc1-c1cncnc1OC [Example 245]
0.059 µM	COc1cc(NS(=O)(=O)c2ccc3ccccc3c2)ccc1-c1cncnc1C [Example 175, N-(3-methoxy-4-(4-methylpyrimidin-5-yl)phenyl)naphthalene-2-sulfonamide]
0.117 µM	COc1cc(NS(=O)(=O)c2ccc(Cl)cc2)ccc1-c1cncnc1C [Example 172, 4-chloro-N-(3-methoxy-4-(4-methylpyrimidin-5-yl)phenyl)benzenesulfonamide]
0.1 µM	COc1cc(NS(C)(=O)=O)ccc1-c1cncnc1C1CCCCC1 [Example 221, N-(4-(4-cyclohexylpyrimidin-5-yl)-3-methoxyphenyl)methanesulfonamide]
0.0034 µM	COc1cc(NS(=O)(=O)Cc2ccc(Cl)cc2)ccc1-c1cncnc1C [Example 173, 1-(4-chlorophenyl)-N-(3-methoxy-4-(4-methylpyrimidin-5-yl)phenyl)methanesulfonamide]
0.0032 µM	CS(=O)(=O)Nc1ccc(-c2cncc3ccccc23)c(OC(F)(F)F)c1 [Example 228, N-(4-(isoquinolin-4-yl)-3-(trifluoromethoxy)phenyl)methanesulfonamide]
0.056 µM	COc1ccncc1-c1ccc(NS(C)(=O)=O)cc1OCC(F)(F)F [Example 233, N-(4-(4-methoxypyridin-3-yl)-3-(2,2,2-trifluoroethoxy)phenyl)methanesulfonamide]
0.04 µM	CS(=O)(=O)Nc1ccc(-c2cncc3ccccc23)c(OCCF)c1 [Example 234, N-(3-(2-fluoroethoxy)-4-(isoquinolin-4-yl)phenyl)methanesulfonamide]
0.056 µM	COc1ccc(S(=O)(=O)Nc2ccc(-c3cncnc3C)c(OC)c2)cc1 [Example 170, 4-methoxy-N-(3-methoxy-4-(4-methylpyrimidin-5-yl)phenyl)benzenesulfonamide]
0.026 µM	Cc1ccncc1-c1ccc(NS(C)(=O)=O)cc1C(F)(F)F [Example 240, N-(4-(4-methylpyridin-3-yl)-3-(trifluoromethyl)phenyl)methanesulfonamide]
0.048 µM	CS(=O)(=O)Nc1ccc(-c2cncc3ccccc23)c(C(F)(F)F)c1 [Example 241, N-(4-(isoquinolin-4-yl)-3-(trifluoromethyl)phenyl)methanesulfonamide]
0.052 µM	Cc1cc(NS(C)(=O)=O)ccc1-c1cnccc1Cl [Example 195, N-(4-(4-chloro-3-pyridinyl)-3-methylphenyl)methanesulfonamide]
0.12 µM	COc1cc(NS(C)(=O)=O)ccc1-c1cncn2cccc12 [Example 250, N-(3-methoxy-4-(pyrrolo[1,2-c]pyrimidin-4-yl)phenyl)methanesulfonamide]
0.0014 µM	Cc1cc(NS(C)(=O)=O)ccc1-c1cnccc1OCC(F)(F)F [Example 198, N-(3-methyl-4-(4-(2,2,2-trifluoroethoxy)-3-pyridinyl)phenyl) methane sulfonamide]
0.039 µM	CS(=O)(=O)Nc1ccc(-c2cnccc2C2CC2)c(C(F)(F)F)c1 [Example 243, N-(4-(4-cyclopropylpyridin-3-yl)-3-(trifluoromethyl)phenyl)methanesulfonamide]
0.118 µM	COc1cc(NS(=O)(=O)c2cccc3cccnc23)ccc1-c1cncnc1C [Example 176, N-(3-methoxy-4-(4-methylpyrimidin-5-yl)phenyl)quinoline-8-sulfonamide]
